# Reference: patent US20050182100A1, “Method of use” (priority 2002, published 2005)
# Columns and labels:
# [1] = system: patients with dyspepsia associated with gastric ulcers, duodenal ulcers, reflux esophagitis and gastroesophageal reflux without esophagitis; settings: clinical studies; cited from earlier work
# [2] = system: patients affected by sleeping disturbance; assay: Administration of esomeprazole to patients affected by sleeping disturbance; format: in vivo, human; settings: especially with GERD, oral route
# Text: This applies especially to patients with GERD.
# While the effect on the symptoms of sleeping disturbance have been established in patients who have taken esomeprazole by the oral route, it is believed that the improved effect of esomeprazole is a systemic effect which is not dependent on what mode of administration that is used, and that accordingly the improved effect on sleeping and quality of life will be seen also with other routes of administration such as rectal or parenteral administration.
# The invention is further exemplified by the following case studies. During oral treatment with esomeprazole for acid related diseases such as non-erosive and erosive induced upper gastrointestinal disorders, evidence has accumulated that esomeprazole may be beneficial for treatment of sleeping disturbance especially in patients with GERD and endoscopy negative GERD.
# [3] = at neutral or acid pH; cited from earlier work
SMILES,healing of gastroduodenal and esophageal lesions and dyspeptic symptom resolution versus H2 receptor antagonists [1],effect on symptoms of sleeping disturbance [2],storage stability [3]
"COc1ccc2[nH]c([S+]([O-])Cc3ncc(C)c(OC)c3C)nc2c1 (racemic) [omeprazole, 5-methoxy-2-[[(4-methoxy-3,5-dimethyl-2-pyridinyl)methyl]sulfinyl]-1H-benzimidazole]",superior to H2 receptor antagonists,–,–
"COc1ccc2nc([S@@+]([O-])Cc3ncc(C)c(OC)c3C)[nH]c2c1 [esomeprazole, S-5-methoxy-2-[[(4-methoxy-3,5-dimethyl-2-pyridinyl)methyl]sulfinyl]-1H-benzimidazole]",–,disappearance or great improvement of the symptoms,poor storage stability
